Consider 7 compounds from publication PMC8533202, “Design of Inhibitors of the Intrinsically Disordered Protein NUPR1: Balance between Drug Affinity and Target Function” (Biomolecules, 2021).

The target in assay [1] is T1, NUPR1 (Homo sapiens, UniProt O60356).
T1 construct: made in house
T1 sequence (O60356 1-82): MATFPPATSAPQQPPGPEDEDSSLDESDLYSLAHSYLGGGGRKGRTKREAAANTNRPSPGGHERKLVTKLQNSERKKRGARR
The assay can be described thus: Isothermal titration calorimetry (ITC) binding to NUPR1. The note with it: 25 °C; for N (stoichiometry) / ΔG / ΔH / −TΔS: pH 7.0; for Ka / Kd: sodium phosphate 20 mM, pH 7.0, 2% DMSO; for Kd: read-out: Kd (=1/Ka). How it is done: The binding of the ZZW-115-derived compounds to NUPR1 was determined as described by using a high sensitivity isothermal titration calorimeter Auto-iTC200 (MicroCal, Malvern-Panalytical, Malvern, UK). Protein samples and solutions were properly degassed. Experiments were performed with freshly prepared protein solutions at 25 °C. A solution of NUPR1 (20 μM, in sodium phosphate 20 mM, pH 7.0, 2% DMSO) in the calorimetric cell was titrated with a solution of each compound (200 μM, in sodium phosphate 20 mM pH 7.0, 2% DMSO). The inhibitors were dissolved in the same buffer used for the protein. A standard protocol was employed: 19 titrant injections with 2 μL compound solution were programmed with a time spacing of 150 s, a stirring speed of 750 rpm, and a reference power of 10 μcal/s. The heat evolved after each ligand injection was calculated from the integral of the calorimetric signal. The heat due to the binding reaction was obtained as the difference between the reaction heat and the corresponding heat of injection, the latter estimated as a constant value throughout the experiment, and included as an adjustable parameter in the analysis. Control experiments (with the compounds injected into the buffer) were performed under the same experimental conditions.
The association constant (Ka), the enthalpy change (ΔH) and the stoichiometry (n) of the binding reaction were obtained through nonlinear regression analysis of experimental data to a model assuming a single ligand binding site for the protein. Experiments were performed in replicate and data were analyzed using in-house-developed software implemented in Origin 7 (OriginLab).
The interaction between ZZW-115-Derived compounds and NUPR1 was studied by using ITC, the gold-standard technique in binding-affinity determination, to test our theoretical prediction. […] From the thermogram (thermal power as a function of time), the binding isotherm (ligand-normalized heat as a function of the molar ratio) was obtained through integration of the individual heat effect associated with injection of each ligand solution (Figure 3). We used a nonlinear least-squares regression analysis employing a model that considered a single binding site in NUPR1 to estimate binding parameters such as the dissociation constant and the binding enthalpy.
For orientation: ITC needs no label: the signal is the heat of the interaction.

For assay [2], the system named is PDAC001T cells. The assay can be described thus: Cell viability assay (PrestoBlue). The note with it: Homo sapiens; PDAC001T (basal subtype), 72 h. Format: cell-based. The source says: (§1) Primary pancreatic cancer cells PDAC001T, PDAC012T, PDAC021T, PDAC081T, PDAC082T, PDAC087T, PDAC088T, PDAC089T, and PDAC115T were obtained from the PaCaOmics clinical trial registered at www.clinicaltrials.gov (accessed on 2 October 2021) with registration number NCT01692873. We included PDAC samples from both echoendoscopic ultrasound-guided fine-needle (EUS-FNA) biopsies for patients with unresectable tumors and from surgical specimens for patients undergoing surgery. The tumor samples of these patients were used to generate patient-derived xenograft in nude mice as previously reported. Xenografts obtained from mice were split into several small pieces and used for cell culture in a biosafety chamber: after fine mincing, they were treated with collagenase type V (ref C9263; Sigma-Aldrich, St. Louis, MO, USA) and trypsin/EDTA (ref 25200-056; Gibco, Life Technologies, Grand Island, NY, USA) and were suspended in Dulbecco’s modified Eagle’s medium supplemented with 1% w/w penicillin/streptomycin (Gibco, Life Technologies, Paisley, UK) and 10% fetal bovine serum (Lonza Inc., Walkersville, MD, USA). After centrifugation, cells were resuspended in serum-free ductal media adapted from Schreiber et al. at 37 °C in a 5% CO2 incubator. Amplified cells were stored in liquid nitrogen as previously reported. Cells were weaned from antibiotics for ≥48 h before testing.
(§2) Cell viability was evaluated in ten pancreatic cancer cell lines, including MiaPaCa-2, and nine primary pancreatic cancer-derived cell lines: PDAC001T, PDAC012T, PDAC021T, PDAC081T, PDAC082T, PDAC087T, PDAC088T, PDAC089T, and PDAC115T. MiaPaCa-2 cells were obtained from ATCC (Manassas, VA, USA) and maintained in DMEM (Invitrogen, Cergy-Pontoise, France), supplemented with 10% […] at 37 °C with 5% CO2. The primary pancreatic cancer-derived cells were cultured in serum free ductal media (SFDM) following a procedure adapted from those previously described, without antibiotic, and incubated at 37 °C in a 5% CO2 incubator. Cells were plated in 96-well plates (5000 cells/well) overnight. Then, the media were supplemented with the compounds to be tested at 0–100 µM concentration, and the samples were incubated for another additional 72 h before performing the measurement. Cell viability was estimated after addition of PrestoBlue™ reagent (Life Technologies, Paris, France) for 3 h according to the PrestoBlue™ cell viability reagent protocol provided by the supplier. Cell viability was normalized when comparing to untreated cell rates. Experiments were performed in triplicate and each set was repeated three times, with similar results.

Assay [3] has as its system PDAC012T cells. The assay can be described thus: Cell viability assay (PrestoBlue). Type of assay: cell-based. Particulars: Homo sapiens; PDAC012T (classical subtype), 72 h.
From the text: as §1, §2

In assay [4] the test system is PDAC021T cells. The assay can be described thus: Cell viability assay (PrestoBlue). Format: cell-based. The note with it: Homo sapiens; PDAC021T (basal subtype), 72 h.
From the text: as §1, §2

Assay [5] concerns PDAC081T cells. The assay can be described thus: Cell viability assay (PrestoBlue). Type of assay: cell-based. The note with it: Homo sapiens; PDAC081T (classical subtype), 72 h.
From the text: as §1, §2

In assay [6] the test system is PDAC082T cells. The assay can be described thus: Cell viability assay (PrestoBlue). Format: cell-based. Particulars: Homo sapiens; PDAC082T (classical subtype), 72 h.
From the text: as §1, §2

For assay [7], the system named is PDAC087T cells. In words: Cell viability assay (PrestoBlue). Type of assay: cell-based. The note with it: Homo sapiens; PDAC087T (basal subtype), 72 h.
From the text: as §1, §2

Assay [8] deals with PDAC088T cells. In words: Cell viability assay (PrestoBlue). The note with it: Homo sapiens; PDAC088T (classical subtype), 72 h. Type of assay: cell-based.
From the text: as §1, §2

Assay [9] relates to PDAC089T cells. The assay can be described thus: Cell viability assay (PrestoBlue). Format: cell-based. The note with it: Homo sapiens; PDAC089T (derived from a liver metastasis), 72 h.
From the text: as §1, §2

Assay [10] concerns PDAC115T cells. In words: Cell viability assay (PrestoBlue). Type of assay: cell-based. Particulars: Homo sapiens; PDAC115T (basal subtype), 72 h.
From the text: as §1, §2

Assay [11] has as its system MiaPaCa-2 cells. The assay can be described thus: Cell viability assay (PrestoBlue). Format: cell-based, human. The note with it: Homo sapiens, MIA PaCa-2, 72 h, MiaPaCa-2, 72 h. How it is done: as §2

By IC50 is commonly meant the concentration at which inhibition is half-maximal. Read a high IC50 as lower potency. Take `CCN(CC)CCN1CCN(CCCN2c3ccccc3Sc3ccc(C(F)(F)F)cc32)CC1` [ZZW-129]: the “N (stoichiometry)” value in assay [1] was 1.2 ± 0.1. For the same compound, the ΔG in assay [1] is reported as −7.5 ± 0.1 kcal mol^–1. Also, in assay [1], the ΔH was −0.7 ± 0.4 kcal mol^–1. In assay [1], the “−TΔS” value is given as −6.8 ± 0.4 kcal mol^–1. This compound yielded a Ka in assay [1] of 3.1 ± 0.3 M^–1 × 10^5. For the same compound, in assay [1], the Kd was 3.2 ± 0.3 µM. Also, the IC50 in [2] worked out at 1.94 µM; in [3], 2.77 µM; in [4], 3.41 µM; in assay [5], 0.86 µM; in [6], 3.56 µM; in assay [7], 4.28 µM. Further, the IC50 turned out to be 7.28 µM in assay [8], 7.9 µM in assay [9], 2.46 µM in [10] and 0.33 µM in assay [11].
With `FC(F)(F)c1ccc2c(c1)N(CCCN1CCN(CCN3CCCC3)CC1)c1ccccc1S2` [ZZW-130], the “N (stoichiometry)” value in assay [1] was determined as 1.4 ± 0.1. The ΔG in assay [1] is listed as −7.9 ± 0.1 kcal mol^–1. The compound further registered a ΔH in assay [1] of 0.3 ± 0.3 kcal mol^–1. In [1], the “−TΔS” value is −8.2 ± 0.3 kcal mol^–1. Also, the Ka in [1] is 6.4 ± 0.4 M^–1 × 10^5. The Kd in assay [1] came to 1.6 ± 0.1 µM. The IC50 worked out at 2.45 µM in assay [2]; 4.18 µM in assay [3]; 3.81 µM in [4]; 1.12 µM in [5]; 4.33 µM in assay [6]; 4.95 µM in assay [7]. In addition, the IC50 in [8] was 6.75 µM; in [9] it was 6.03 µM; in [10], 2.91 µM; in assay [11] it was 0.35 µM.
Consider `FC(F)(F)c1ccc2c(c1)N(CCCN1CCN(CCN3CCCCC3)CC1)c1ccccc1S2` [ZZW-131], for which the “N (stoichiometry)” value in assay [1] amounted to 0.8 ± 0.1. The same compound registered a ΔG in assay [1] of −7.7 ± 0.1 kcal mol^–1. Moreover, the ΔH in [1] worked out at 0.5 ± 0.3 kcal mol^–1. Besides, the “−TΔS” value in assay [1] is reported as −8.2 ± 0.3 kcal mol^–1. The compound further showed a Ka in assay [1] of 4.7 ± 0.3 M^–1 × 10^5. The Kd in [1] is 2.1 ± 0.1 µM. Further, the IC50 in assay [2] worked out at 3.98 µM; in assay [3] it was 5.25 µM; in assay [4] it was 6.47 µM; in assay [5], 0.97 µM; in assay [6] it was 6.49 µM; in assay [7] it was 4.43 µM. For the same compound, the IC50 in assay [8] was 8.11 µM; in assay [9], 10.6 µM; in [10], 5.75 µM; in assay [11], 0.3 µM.
For `CCN(CC)CCCN1CCN(CCCN2c3ccccc3Sc3ccc(C(F)(F)F)cc32)CC1` [ZZW-143], the “N (stoichiometry)” value in [1] worked out at 1.2 ± 0.1. In addition, the ΔG in assay [1] is recorded as −6.4 ± 0.1 kcal mol^–1. In assay [1], this compound returned a ΔH of 0.8 ± 0.4 kcal mol^–1. Moreover, the “−TΔS” value in [1] is listed as −7.2 ± 0.4 kcal mol^–1. This compound also came in with a Ka in assay [1] of 0.5 ± 0.1 M^–1 × 10^5. The Kd in [1] came to 20 ± 4 µM. The IC50 in assay [2] turned out to be 2.31 µM; in assay [3] it was 2.18 µM; in assay [4], 2.57 µM; in assay [5] it was 0.97 µM; in assay [6] it was 3.55 µM; in assay [7], 2.22 µM. The IC50 in assay [8] was found to be 5.94 µM; in assay [9], 6.12 µM; in assay [10] it was 2.5 µM; in assay [11], 0.29 µM.
As for `FC(F)(F)c1ccc2c(c1)N(CCCN1CCN(CCCN3CCCC3)CC1)c1ccccc1S2` [ZZW-144], in [1], the “N (stoichiometry)” value worked out at 1.2 ± 0.1. This compound gave a ΔG in assay [1] of −6.7 ± 0.1 kcal mol^–1. In [1], the ΔH turned out to be 0.5 ± 0.5 kcal mol^–1. In addition, the “−TΔS” value in assay [1] was −7.2 ± 0.5 kcal mol^–1. Besides, the Ka in assay [1] was 0.85 ± 0.8 M^–1 × 10^5. For the same compound, in assay [1], the Kd was 12 ± 1 µM. Also, the IC50 in assay [2] was 2.51 µM; in assay [3], 2.51 µM; in assay [4] it was 3.69 µM; in [5] it was 0.98 µM; in assay [6], 3.04 µM; in assay [7], 3.57 µM. Besides, the IC50 in [8] was 5.8 µM; in assay [9], 8.38 µM; in assay [10], 3.22 µM; in assay [11] it was 0.26 µM.
As to `FC(F)(F)c1ccc2c(c1)N(CCCN1CCN(CCCN3CCCCC3)CC1)c1ccccc1S2` [ZZW-145], in assay [1], the “N (stoichiometry)” value is 1.2 ± 0.1. The same compound displayed a ΔG in [1] of −6.7 ± 0.1 kcal mol^–1. Besides, in [1], the ΔH is reported as 0.7 ± 0.5 kcal mol^–1. In assay [1], the “−TΔS” value is listed as −7.4 ± 0.5 kcal mol^–1. Further, the Ka in assay [1] is 0.82 ± 0.9 M^–1 × 10^5. Moreover, in [1], the Kd worked out at 11 ± 1 µM. In addition, the IC50 was determined as 2.36 µM in assay [2]; 2.36 µM in [3]; 2.33 µM in assay [4]; 0.78 µM in [5]; 2.33 µM in assay [6]; 2.37 µM in assay [7]. Also, the IC50 is 5 µM in assay [8], 6.22 µM in assay [9], 2.44 µM in [10] and 0.19 µM in [11].
For `FC(F)(F)c1ccc2c(c1)N(CCCN1CCN(CCCN3CCOCC3)CC1)c1ccccc1S2` [ZZW-148], the “N (stoichiometry)” value in assay [1] is reported as 1.2 ± 0.1. Also, in [1], the ΔG is listed as −6.8 ± 0.1 kcal mol^–1. The ΔH in assay [1] is listed as 0.7 ± 0.5 kcal mol^–1. Besides, the “−TΔS” value in assay [1] is on record as −7.5 ± 0.5 kcal mol^–1. In [1], this compound yielded a Ka of 1.0 ± 0.1 M^–1 × 10^5. Moreover, the Kd in [1] stood at 9.6 ± 1 µM. The IC50 in [2] came out at 3.75 µM; in assay [3], 3.7 µM; in assay [4], 4.35 µM; in [5] it was 1.11 µM; in assay [6], 4.1 µM; in [7], 6.57 µM. Besides, the IC50 in assay [8] amounted to 10.7 µM; in assay [9], 14.8 µM; in assay [10] it was 4.37 µM; in [11], 0.47 µM.
